For one assay, the system named is MDA 435 cells. Description: Cell growth inhibition: MTT assay, MDA 435 (ER- breast carcinoma). The assay is classed as cell-based. The following applies: Homo sapiens, MDA435, read-out: % inhibition of cell growth compared to no drug control. The procedure: (§1) ER- breast carcinoma, human (MDA-435) obtained from Dr. Janet Price, MDA Cancer Center, Houston, Tex., were grown in Gibco's RPMI 1640 media supplemented with sodium pyruvate, 10% FBS and 13 ng/mL gentamicin. Cells were incubated at 37° C., 4.5% CO2 and 95.5% humidified air.
1. Cell growth inhibition: MTT Assay
The compounds of formula 1 were tested for ability to inhibit cell growth using the standard MTT assay, a tetrazolium-based assay which measures the viability of cells in culture. Cells were harvested upon reaching 70-80% confluency and pelleted. The cells were then resuspended in medium in which FBS was replaced with Hyclone's Charcoal/Dextran stripped FBS, and seeded (2 mL/well) into 6-well plates (Corning) at a density allowing for linear growth over a four day assay period. Compounds of formula 1 (10 mM stock in dimethylsulfoxide (DMSO)) were added 18-24 hours post-seeding. Compound dilutions were prepared in the appropriate growth media and added to the cells for final concentrations of 10, 3.3 and 1 μM in 0.1% DMSO. At 24, 48 and 72 hr. time points, MTT (3-[4,5-dimethylthiazol-2-yl-2,5-diphenyltetrazolium bromide) stock solution (5mg/mL in 1 PBS) was added to the cells plates (625 μL/well) which were then incubated for 2.5 hours. Liquid was aspirated from the wells and 1 mL/well of 95% ethanol was added to solubilize the formazan reaction product. The plates were shaken (Bellco Mini-Orbital Shaker) for 15 minutes. The solubilized formazan was then transferred (50 μls) into a 96-well plate and the optical densities (OD) were measured (Bio-Tek Microplate Reader) at 570 nm and reference wavelength of 660 nm. Percentage of inhibition of cell growth was calculated according to the following formula: [formula]

A further assay relates to MDA-435 cells. Description: Apoptosis: cell death detection by ELISA, MDA-435. The following applies: for fold induction at 1 µM / fold induction at 3.3 µM / fold induction at 10 µM: Homo sapiens, read-out: Fold induction of apoptosis compared to no drug control. The assay is classed as cell-based, human. The procedure:
as §1
2. Apoptosis: Cell death detection by ELISA:
Compounds of formula 1 were tested for the ability to cause apoptosis as follows:
Cells and media were collected, cells were pelleted, resuspended in 100 μl lysis buffer (50 mM Tris-Cl (pH=8.0), 20 mM EDTA, 1% NP-40e) and incubated 30 minutes at 4° C. to lyse. Cell debris was spun down and an aliquot (30 μl) of the […] was removed for protein determination and stored at -20° C. An additional 280 μl of lysis buffer, was added, mixed thoroughly and spun down at 14,000 RPM for 10 minutes at 4° C. An aliquot was removed (180 μl) and the sample was stored at -20° C. until testing.
A commercially available apoptosis detection kit, obtained from Boehringer Mannheim (Cat. No. 1544-674), was used as per the directions provided with the kit (Cell Death Detection ELISA). However, the protocol was modified in that a 1:40 to 1:100 dilution of sample was prepared, rather than the recommended 1:10 dilution, due to the increase in cell number used to prepare the sample extract and the subsequent increase in ELISA reactivity. The assay measures apoptosis by quantifying the amount of nucleosomal fragmentation from the extracts of cells treated with the test compounds (samples). These nucleosomal fragments, generated by the activation of endonucleases, are a known downstream effector of apoptosis. Antihistone antibodies are used to fix any nucleosomal fragments in the sample to the well of the microtiter plates. The sample is then incubated with anti-DNA antibodies conjugated to peroxidase and subsequently incubated with the peroxidase substrate, ABTS. The resulting colorimetric change is measured spectrophotometrically at 405/490nm.
The total protein content of each sample was determined for the purpose of normalizing the ELISA values to amount of sample loaded. Microplate assay protocol described in the instruction manual, for (Biorad DC Assay, Cat.#500-0116) section 5.2. The protein concentrations were calculated based upon a linear regression curve.
d) ELISA assay calculations
Relative ELISA O.D. readings are determined by subtracting the ELISA plate background O.D. value. No drug control O.D. value (lysis buffer only) was subtracted from sample O.D. value. A correction coefficient (CC), based on the sample protein concentration compared to no drug control, was determined to correct the sample O.D. following subtraction of the background O.D. (BCS O.D.). The fold increase over no drug control is calculated and normalized to the total protein concentration of the samples by multiplying against the correction coefficient.
To determine the fold increase in ELISA O.D., obtain the following O.D. measurements:
ELISA plate background--lysis buffer only (EPB);
no drug treated control--cell sample treated with DMSO (NDT);
drug treated sample--cell sample treated with a compound of formula 1 (DT) Subtract EPB from NDT (NDT-EPB) and DT (DT-EPB). The fold increase of the treated over the control is then (DT-EPB)/(NDT-EPB).
To determine the total protein concentration of the samples, obtain the total protein concentration in mg/ul calculated using standard linear regression formula (y=mx+b) based on BSA standards. B=ELISA background. Protein concentration (PC)(mg/ml)=(sample absorbance-b)/x.
Correction coefficient (cc) is (NDT)(PC)/(DT)(PC).
Determine fold increase of ELISA (FT) normalized to total PC:
nDT is DT×cc (which is DT O.D. normalized to PC)
nNDT is NDT×cc (which is NDT O.D. normalized to PC)
FI normalized to PC is nDT/nNDT.

Read-outs that look alike come from different tables or passages of the source.

Take `C/C(=C/C=C/C(C)=C/C(=O)Nc1ccc(O)cc1)c1cc(C(F)(F)F)cc(C(F)(F)F)c1` [N-(4-hydroxyphenyl)-(2E,4E,6Z)-7-[3,5-bis(trifluoromethyl)phenyl]-3,7-dimethyl-2,4,6-heptatrienamide]: in the assay with MDA 435 cells (24 hours), the inhibition at 1 µM stood at 47%, the inhibition at 3.3 µM was determined as 78% and the inhibition at 10 µM worked out at 77%. Moreover, in the assay on MDA 435 cells (48 hours), the inhibition at 1 µM amounted to 59%, the inhibition at 3.3 µM was 91% and the inhibition at 10 µM stood at 95%. In the assay on MDA 435 cells (72 hours), the inhibition at 1 µM is 94%, the inhibition at 3.3 µM amounted to 96% and the inhibition at 10 µM turned out to be 98%. For the same compound, in the assay with MDA-435 cells (MDA435, 24 h, 24 hrs), the fold induction at 1 µM is 3, the fold induction at 3.3 µM was 6 and the fold induction at 10 µM was 6. Also, in the assay with MDA-435 cells (MDA435, 48 h, 48 hrs), the fold induction at 1 µM came to 3, the fold induction at 3.3 µM was determined as 10 and the fold induction at 10 µM amounted to 16. For the same compound, in the assay with MDA-435 cells (MDA435, 72 h, 72 hrs), the fold induction at 1 µM came out at 4, the fold induction at 3.3 µM turned out to be 12 and the fold induction at 10 µM is 34. The “Induction of apoptosis (in words)” value in the assay with MDA-435 cells (after 24 hours) is on record as “induces significant apoptosis”.

Source of the values: patent publication US6310247A, “7-aryl-6(Z)-heptatrienoic acid retinamides” (Hoffmann-LA Roche Inc., priority 1999, dated 2001).
